According to patent US20140141069A1, “BETA-GUANIDINOPROPIONIC ACID FOR THE TREATMENT OF HYPERTENSION” (priority 2011, published 2014):
Like-named read-outs stand apart in the source and are kept apart here.

Assays:
SHR = experiment: Tail cuff blood pressure in SHR on a diet with β-GPA versus standard diet (Example 5); format: in vivo, rat
Experimental: Male, non-obese, normoglycaemic, 16-weeks-old SHR without lipid abnormalities were randomly assigned to a diet with β-GPA versus a standard diet without β-GPA (N=8 per group). Blood pressure was measured weekly with the tail cuff method. All blood pressure measurements were performed unblinded under equal conditions. Body temperature was kept constant during the measurements at 36-38° C. […] Data are expressed as mean (SEM).

SHR mesenteric arteries = experiment: Vasodilation/contractility of SHR mesenteric arteries in vitro in a wire myograph with the CK-inhibitor DNFB; parameters: species or system rat; conditions: p<0.01
SH rats = experiment: Tail cuff blood pressure in SH adult rats given 3% β-GPA (Example 4); format: in vivo, rat; conditions: 3% β-GPA in feed, tailcuff method
Experimental: A total of 24 SH adult rats are divided into 4 groups: the test group is given 3% β-GPA , a second group is given 3% creatine, a third group is given 3% creatine +3% β-GPA; and a control group receives only normal feed. SH rats are usually also associated with high creatine kinase levels, although it is unknown whether this is cause or result of the spontaneous high blood pressure. […] Blood pressure was measured at the tail using standard methods (tailcuff method). In the control group, the blood pressure rises. An absence in the rise of blood pressure or even a reduction in the blood pressure in the test group indicates the blood pressure lowering effect of β-GPA. In order to exclude a possible effect of creatine deficiency or a possible effect of creatine itself on the blood pressure level, the two additional control groups (3% creatine or 3% creatine +3% β-GPA).

[1] = system: Spontaneous Hypertension (SH) rats; experiment: Blood pressure of non-obese SH rats on creatine-free diet with 0.1% β-guanidinopropionic acid; format: in vivo, rat; conditions: feed contained 0.1% β-guanidinopropionic acid
Source text: The effects of β-guanidinopropionic acid can not be explained by, for example, a reduction in weight.

[2] = Certified toxicological testing of marketed β-guanidinopropionic acid; conditions: preliminary tests of product marketed for human use
[3] = cited from earlier work
creatine kinase [4] = conditions: creatine kinase reaction; cited from earlier work
[5] = system: myocardial phosphocreatine and creatine; conditions: high doses; cited from earlier work
rats = conditions: 1% in rat chow, up to 8 weeks of feeding; cited from earlier work
creatine kinase [6] = conditions: equimolar quantities of DNFB, cited from earlier work
[7] = system: ADP-dependent platelet aggregation; experiment: Blood CK titration at 1 μmol/L ADP, platelet aggregation (pilot experiment); format: cell-based

With NC(N)=NCCC(=O)O [β-GPA, 3-(diaminomethylideneamino)propanoic acid] the Weight changes (SHR; diet with β-GPA) was “no significant weight changes”, the Systolic pressure reduction (SHR; diet with β-GPA vs controls, 4 weeks, tail cuff, mean (SEM), N=8 per group, p<0.001) was −42.7 (5.5) mm Hg and the Diastolic pressure reduction (SHR; diet with β-GPA vs controls, tail cuff, mean (SEM), p<0.001) was −35.3 (4.8) mm Hg. For the same compound, the “Residual contractility after the CK inhibitor DNFB, versus controls” value (SHR mesenteric arteries; mesenteric arteries of rats treated with β-GPA compared to controls, DNFB, mean (SEM)) was −41.3 (13.0) %, the “Vasodilation of mesenteric arteries compared to controls” value (SHR mesenteric arteries; rats treated with β-GPA before sacrifice, in vitro incubation with dinitrofluorobenzene, N=5 to 6 per group) was “significantly increased” and the “Blood pressure level versus control SH rats” value (SH rats) was “lower than that of the control SH rats”. The “Blood pressure rise characteristic for SH rats” value [1] was “did not show blood pressure rise”, the Certified toxicological testing [2] was “passed certified toxicological testing” and the Solubility in water [3] was “up to 50 mg/ml”. For the same compound, the “in vitro Vmax relative to the Vmax values of creatine and phosphocreatine” value (creatine kinase [4]) was under 1%, the “Reduction of myocardial phosphocreatine and creatine concentrations” value [5] was “up to 80%” and the “Cardiac function or sprint capacity in vivo” value (rats) was “does not lead to reduced cardiac function or overtly reduced sprint capacity”.

For O=[N+]([O-])c1ccc(F)c([N+](=O)[O-])c1 [DNFB, dinitrofluorobenzene], the “Mean inhibition of contraction” value (creatine kinase [6]; blacks) is listed as 0.32 and the “Mean inhibition of contraction” value (creatine kinase [6]; whites) is listed as 0.90.

For CN(CC(=O)O)C(=N)NP(=O)(O)O [CrP, phosphocreatine], the “Inhibition of ADP-dependent platelet aggregation with increasing CK” value [7] was “greater inhibition of ADP-dependent platelet aggregation”.
